According to patent publication US7781474B2, “Inhibitors of hepatitis C virus replication” (InterMune, Inc., priority 2006, dated 2010):
Counter-ions that a name gives are not always drawn.

molecular target: T1, NS3/NS4A-2 (Hepatitis C virus genotype 1a, UniProt P27958); assay: NS3 inhibition assay (NS3-NS4 protease assay); type: biochemical, hepatitis C virus (HCV); conditions: recombinant full-length NS3 (E. coli or Baculovirus) complexed with NS4A-2; RETS1 substrate
T1 construct: Recombinant E. coli or Baculovirus full-length NS3 was diluted to 3.33 μM with assay buffer; made in house; host or cells: E. coli or Baculovirus (insect cells)
T1 sequence (P27958 1027-1657): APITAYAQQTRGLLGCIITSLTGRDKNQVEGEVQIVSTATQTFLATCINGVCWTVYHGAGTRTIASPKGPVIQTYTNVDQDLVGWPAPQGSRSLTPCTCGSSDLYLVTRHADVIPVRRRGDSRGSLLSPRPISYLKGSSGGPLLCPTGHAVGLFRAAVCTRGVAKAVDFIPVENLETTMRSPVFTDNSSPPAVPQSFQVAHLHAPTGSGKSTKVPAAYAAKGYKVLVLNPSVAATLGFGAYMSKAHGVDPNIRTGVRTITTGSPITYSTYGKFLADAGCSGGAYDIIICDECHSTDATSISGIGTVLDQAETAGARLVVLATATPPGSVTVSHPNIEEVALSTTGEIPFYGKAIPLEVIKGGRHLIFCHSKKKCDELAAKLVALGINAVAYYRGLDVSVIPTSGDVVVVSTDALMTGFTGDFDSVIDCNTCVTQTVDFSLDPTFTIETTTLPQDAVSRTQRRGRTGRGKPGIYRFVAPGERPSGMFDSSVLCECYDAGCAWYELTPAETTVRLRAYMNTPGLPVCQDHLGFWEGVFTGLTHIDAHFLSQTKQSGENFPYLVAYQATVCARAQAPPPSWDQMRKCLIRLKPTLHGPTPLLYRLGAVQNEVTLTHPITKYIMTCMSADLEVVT
Protocol: NS3 Complex Formation with NS4A-2.
Recombinant E. coli or Baculovirus full-length NS3 was diluted to 3.33 μM with assay buffer and transferred material to an eppendorf tube and place in water bath in 4° C. refrigerator. The appropriate amount of NS4A-2 to 8.3 mM in assay buffer was added to equal the volume of NS3 in step 2.1.1 (conversion factor—3.8 mg/272 μL assay buffer). The material was transferred to an eppendorf tube and place in water bath in 4° C. refrigerator.
After equilibration to 4° C., equal volumes of NS3 and NS4A-2 solutions were combined in an eppendorf tube, mix gently with a manual pipettor, and incubate mixture for 15 minutes in the 4° C. water bath. Final concentrations in the mixture are 1.67 μM NS3, 4.15 mM NS4A-2 (2485-fold molar excess NS4A-2).
After 15 minutes at 4° C., the NS3/NS4A-2 eppendorf tube was removed and place it in a room temperature water bath for 10 minutes. NS3/NS4A-2 was alliquoted at appropriate volumes and store at −80° C. (E. coli NS3 run at 2 nM in assay, aliquot at 25 μL. BV NS3 run at 3 nM in assay, aliquot at 30 μL).
Sample compounds were dissolved to 10 mM in DMSO then diluted to 2.5 mM (1:4) in DMSO. Typically, compounds were added to an assay plate at 2.5 mM concentration, yielding upon dilution a starting concentration of 50 microM in the assay inhibition curve. Compounds were serial diluted in assay buffer to provide test solutions at lower concentrations.
The E. coli. NS3/NS4A-2 was diluted to 4 nM NS3 (1:417.5 of 1.67 μM stock−18 μL 1.67 μM stock+7497 μL assay buffer). The BV NS3/NS4A-2 was diluted to 6 nM NS3 (1:278.3 of 1.67 μM stock−24 μL 1.67 μM stock+6655 μL assay buffer). Using the manual multichannel pipettor, careful not to introduce bubbles into the plate, add 50 μL assay buffer to wells A01-H01 of a black Costar 96-well polypropylene storage plate.
Using the manual multichannel pipettor, careful not to introduce bubbles into the plate, add 50 μL of diluted NS3/NS4A-2 from step 2.2.6 to wells A02-H12 of plate in step 2.2.7. Using the manual multichannel pipettor, careful not to introduce bubbles into the plate, transfer 25 μL of the wells in drug dilution plate in step 2.2.5 to corresponding wells in assay plate in step 2.2.8. Change tips on multichannel pipettor for each row of compounds transferred. Using the manual multichannel pipettor, careful not to introduce bubbles into the plate, mix the wells from the assay plate in step 2.2.9 by aspirating and dispensing 35 μL of the 75 μL in each well five times. Change tips on multichannel pipettor for each row of wells mixed. Cover plate with a polystyrene plate lid and pre-incubate the plate from step 2.2.10 containing NS3 protease and sample compounds 10 minutes at room temperature. While plate from step 2.2.11 is pre-incubating, dilute RETS1 substrate in a 15 mL polypropylene centrifuge tube. Dilute RETS1 substrate to 8 μM (1:80.75 of 646 μM stock−65 μL 646 μM stock+5184 μL assay buffer).
After the plate in step is done pre-incubating, and using the manual multichannel, add 25 μL of substrate to all wells on the plate. Quickly mix the plate as in step 2.2.10, mixing 65 μL of the 100 μL in the wells.
Read the plate in kinetic mode on the Molecular Devices SpectraMax Gemini XS plate reader. Reader settings: Read time: 30 minutes, Interval: 36 seconds, Reads: 51, Excitation λ: 335 nm, Emission λ: 495 nm, cutoff: 475 nm, Automix: off, Calibrate: once, PMT: high, Reads/well: 6, Vmax pts: 21 or 28/51 depending on length of linearity of reaction
IC50s are determined using a four parameter curve fit equation, and converted to Ki's using the following Km's: Full-length E. coli NS3−2.03 μM Full-length BV NS3−1.74 μM
where Ki=IC50/(1+[S]/Km))

Compared with `C=C[C@@H]1C[C@]1(NC(=O)C1CNCc2c[nH]nc21)C(=O)NS(=O)(=O)C1CC1` (stereo partly drawn) [Compound 111, N-((1R,2S)-1-(cyclopropylsulfonylcarbamoyl)-2-vinylcyclopropyl)-4,5,6,7-tetrahydro-2H-pyrazolo[4,3-c]pyridine-7-carboxamide hydrochloride], `O=C(NC1(C(=O)NS(=O)(=O)C2CC2)CCC1)C1CNCc2c[nH]nc21` (stereo not shown) [Compound 112] is lower in IC50: 10 to 50 µM for the first, 1 to 10 µM for the second.

First: O=C(CNC(=O)C1CNCc2c[nH]nc21)NS(=O)(=O)C1CC1 (stereo not shown) [Compound 109]
Second: O=C(CNC(=O)C1CCCc2c[nH]nc21)NS(=O)(=O)C1CC1 (stereo not shown) [Compound 102]
The IC50 of the first is higher: 10 to 50 µM for the first, 1 to 10 µM for the second. The second is the more potent here.

Compared with `O=C(O)CNC(=O)C1CCCc2c[nH]nc21` (stereo not shown) [Compound 101], `O=C(O)CNC(=O)C1CN(C(=O)Cc2ccccc2)Cc2c[nH]nc21` (stereo not shown) [Compound 108] is lower in IC50: 10 to 50 µM for the first, 1 to 10 µM for the second. The second is the more potent here.

First: O=C(O)C1CNCc2c[nH]nc21 (stereo not shown) [Compound 110]
Second: CCC[C@H](NC(=O)C1CNCc2c[nH]nc21)C(=O)NS(=O)(=O)C1CC1 (stereo partly shown) [Compound 107]
The IC50 of the first is lower: 1 to 10 µM for the first, 10 to 50 µM for the second.

First: C=C[C@@H]1C[C@]1(NC(=O)[C@@H]1C[C@@H](OC(=O)N2Cc3cccc(F)c3C2)CN1C(C)=O)C(=O)NS(=O)(=O)C1CC1 [Compound 90, (3R,5S)-1-acetyl-5-((1R,2S)-1-(cyclopropylsulfonylcarbamoyl)-2-vinylcyclopropylcarbamoyl)pyrrolidin-3-yl 4-fluoroisoindoline-2 carboxylate]
Second: C=C[C@@H]1C[C@]1(NC(=O)[C@@H]1C[C@@H](OC(=O)N2Cc3cccc(F)c3C2)CN1C(=O)CNC(=O)OC(C)(C)C)C(=O)NS(=O)(=O)C1CC1 [Compound 91]
The IC50 of the first is lower: < 0.1 µM for the first, 0.1 to 1 µM for the second.

Compared with `C=C[C@@H]1C[C@]1(NC(=O)C1CN(C(=O)Cc2ccccc2)Cc2c[nH]nc21)C(=O)NS(=O)(=O)C1CC1` (stereo partly drawn) [Compound 103, N-((1R,2S)-1-(cyclopropylsulfonylcarbamoyl)-2-vinylcyclopropyl)-5-(2-phenylacetyl)-4,5,6,7-tetrahydro-2H-pyrazolo[4,3-c]pyridine-7-carboxamide], `CCC[C@H](NC(=O)C1CN(C(=O)Cc2ccccc2)Cc2c[nH]nc21)C(=O)NS(=O)(=O)C1CC1` (stereo partly shown) [Compound 106] is higher in IC50: 1 to 10 µM for the first, 10 to 50 µM for the second.

In the case of `C=C[C@@H]1C[C@]1(NC(=O)C1CN(C(=O)OC(C)(C)C)Cc2c[nH]nc21)C(=O)NS(=O)(=O)C1CC1` (mixture of isomers) [Compound 104, Tert-butyl 7-((1R,2S)-1-(cyclopropylsulfonylcarbamoyl)-2-vinylcyclopropylcarbamoyl)-6,7-dihydro-2H-pyrazolo[4,3-c]pyridine-5(4H)-carboxylate], the IC50 is reported as 10 to 50 µM.
